{"source": "patent US20230407298A1", "about": "“METHODS FOR INHIBITING CHMP7 EXPRESSION IN NEURONAL CELLS FOR THE TREATMENT OF NEURODEGENERATIVE DISORDERS” (THE JOHNS HOPKINS UNIVERSITY, priority 2020, published 2023)", "key": {"[1]": {"test_system": "POM121, Nup133, Nup50, FG Nups", "assay": "SIM imaging of nucleoporins in nuclei isolated from CHMP7 ASO treated iPSNs", "type": "cell-based, human", "settings": "5 μM, 2-week exposure", "description": "C9orf72 repeat ASO: Sense strand targeting G4C2 ASO (619251) (13) was generously provided by Ionis Pharmaceuticals. On day 20 of differentiation, 5 μM sense targeting ASO was added to the culture media. Media was exchanged and ASO replaced on day 22 of differentiation and downstream analyses were performed on day 25 of differentiation. CHMP7 ASO: Non-targeting scrambled control (676630): […] (SEQ ID NO: 2), CHMP7 ASO 1 (1508916): […] (SEQ ID NO: 3), CHMP7 ASO 2 (1508917): […] (SEQ ID NO: 4), and CHMP7 ASO 3 (1508918): […] (SEQ ID NO:14) were generously provided by Ionis Pharmaceuticals. On day 25 of differentiation, ASOs were added to the culture media at concentrations of 1, 5, or 10 μM as indicated in Description of the Figures. Media was exchanged and ASO replaced every 3 days until day 40 of differentiation.\nNuclei were isolated from iPSNs and postmortem human brain and spinal cord tissue using the Nuclei Pure Prep Nuclei Isolation Kit (Sigma Aldrich) following manufacturer protocol as previously described (13). Briefly, iPSN lysates were prepared by rinsing iPSNs with 1×PBS, adding […] supplied lysis buffer supplemented with DTT and Triton X-100 directly to each well, and harvesting iPSNs with a cell scraper. Postmortem brain and spinal cord lysates were prepared by homogenizing 150 mg fresh frozen tissue directly in supplied lysis buffer with a dounce homogenizer. All lysates were transferred to a 50 mL conical tube and vortexed. Sucrose gradients were assembled following manufacturer protocol. A 1.85 M sucrose gradient was used to enrich for neuronal nuclei. Samples were centrifuged at 15,600 rpm and 4° C. using a Swi32T swinging bucket rotor and Beckman ultracentrifuge (Beckman Coulter) for 45 minutes. The supernatant was discarded, and the remaining nuclei pellet was resuspended in 1 mL of supplied nuclei storage buffer to wash the nuclei of any remaining sucrose. Resuspended nuclei were centrifuged at 2500 rpm and 4° C. for 5 minutes. The supernatant was once again discarded, and the resulting nuclei pellet was vortexed in 1 mL of supplied nuclei storage buffer to resuspend for downstream imaging analysis. For western blots, washed nuclei were lysed in RIPA buffer as described below.\nNuclei staining and super resolution imaging was performed as previously described (6). Following nuclei isolation, 10-50 μL of final nuclei/storage buffer suspension was centrifuged onto collagen coated (1 mg/mL; Advanced Biomatrix) slides with a CytoSpin 4 centrifuge (Thermo Fisher Scientific). Nuclei were immediately fixed with 4% PFA for 5 minutes, washed with 1×PBS 3×10 minutes and permeabilized with 1×PBST containing 0.1% Triton X-100 for 15 minutes. Nuclei were then blocked with 10% normal goat serum diluted in 1×PBS for 1 hour at room temperature and incubated in primary antibody diluted in block (10% normal goat serum in 1×PBS) overnight at 4° C. (See Table B for antibody information). After 16-18 hours, nuclei were washed with 1×PBS 3×10 minutes, incubated in secondary antibody diluted in block (10% normal goat serum in 1×PBS) for 1 hour at room temperature (See Table B for antibody information). Nuclei were washed with 1×PBS 3×10 minutes and cover slipped using Prolong Gold Antifade Reagent (Invitrogen) and 18 mm×18 mm 1.5 high tolerance coverslips (MatTek). NeuN or GFP positive nuclei (see Description of the Figures) were identified via microscope eye pieces. A single z section ˜110 nm thick was acquired by widefield imaging to confirm NeuN or GFP positivity. The immunostained Nup or ESCRT-III protein was subsequently imaged by super resolution structured illumination microscopy (SIM) using a Zeiss ELYRA 51. For each image, 5 grid rotations and optimal z sectioning parameters were employed. Following image acquisition, SIM images were reconstructed using default SIM processing parameters with Zeiss Zen Black 2.3 SP1 software. […]"}, "iPSNs": {"test_system": "iPSNs", "assay": "Glutamate toxicity, propidium iodide (PI) incorporation", "type": "cell-based, human", "description": "On day 12 of differentiation, iPSNs were plated in 24 well optical bottom plates (Cellvis) at a density of 250,000 neurons per well. Neurons were rinsed with 1×PBS and fed with fresh stage 3 media daily remove dead cells and debris until day 25 of differentiation. On day 25 of differentiation, ASO treatment was initiated as described above. Every 3 days, iPSNs were rinsed 3× with 1×PBS and media and ASO were replaced. On day 40 of differentiation, iPSNs were washed with 1×PBS to remove any remaining debris and dead cells. Media was replaced with ACSF (Tocris) containing 0 or 10 μM glutamate (Sigma Aldrich). iPSNs were incubated at 37° C. with 5% CO2 for 4 hours. After 3.5 hours, one drop of NucBlue Live ReadyProbes (Thermo Fisher Scientific) and […] (Thermo Fisher Scientific) and returned to the incubator for 30 mins. iPSNs were imaged in an environmentally controlled chamber with a Zeiss LSM 800 confocal microscope. […] PI and DAPI spots were counted using FIJI.\nOn day 12 of differentiation, iPSNs were plated in 24 well optical bottom plates (Cellvis) at a density of 250,000 neurons per well. […] After 3.5 hours, one drop of NucBlue Live ReadyProbes (Thermo Fisher Scientific) and 1 μM propidium iodide (Thermo Fisher Scientific) and returned to the incubator for 30 minutes. iPSNs were imaged in an environmentally controlled chamber with a Zeiss LSM 800 confocal microscope. […]"}, "stathmin-2 mRNA": {"test_system": "stathmin-2 mRNA", "assay": "qRT-PCR for full length and truncated stathmin-2 mRNA", "type": "cell-based, human", "settings": "C9orf72 and sALS iPSNs; day 46; 3 week exposure; GAPDH normalization", "description": "(§1) Non-targeting scrambled control (676630): […] (SEQ ID NO:2), CHMP7 ASO 1 (1508916): […] (SEQ ID NO:3), CHMP7 ASO 2 (1508917): […] (SEQ ID NO:4), and CHMP7 ASO 3 (1508918): […] (SEQ ID NO:14) were generously provided by Ionis Pharmaceuticals. On day 25 of differentiation, ASOs were added to the culture media at concentrations of […] as indicated in Description of the Figures. Media was exchanged and ASO replaced every 3 days until iPSNs were subjected to downstream analyses on day 40 of differentiation for western blot, SIM, and glutamate excitotoxicity and day 46 of differentiation for stathmin-2 qRT-PCR, Ran GTPase localization, and TDP-43 localization.\nRNA from iPSNs was isolated with a RNeasy kit (QIAGEN) according to manufacturer protocol. RNA concentrations were determined with a NanoDrop 1000 spectrophotometer (Thermo Fisher Scientific). For CHMP7 ASO experiments, RNA was isolated on day 46 of differentiation following 3 weeks exposure to 5 μM CHMP7 ASO2 or scrambled control ASO. For CHMP7 overexpression experiments, RNA was isolated on day 32 of differentiation (2 weeks after plasmid nucleofection). […]"}, "TDP-43": {"test_system": "TDP-43", "assay": "Immunostaining and confocal imaging for TDP-43 in iPSNs", "type": "cell-based, human", "settings": "sALS iPSNs; day 46; 3-week treatment", "description": "as §1\nOn day 12 of differentiation, iPSNs were plated in 24 well optical bottom plates (Cellvis). […] Nuclear intensity and N/C ratios were calculated with FIJI as previously described (80). […]"}, "XPO1 [2]": {"biological_target": "T1, XPO1 (Homo sapiens, UniProt O14980)", "assay": "SIM of nuclei isolated from wildtype iPSNs following Leptomycin B treatment", "type": "cell-based", "settings": "10 nM, ~18 hours", "method": "Leptomycin B and ASO Treatment of iPSC Derived Neurons Leptomycin B: On day 18 of differentiation, 10 nM Leptomycin B (LMB, Cayman Chemicals) was added to the culture media and iPSNs were returned to the incubator for ˜18 hours before downstream analyses were conducted. Ethanol was used as vehicle control. Nuclei were isolated from iPSNs and postmortem human brain and spinal cord tissue using the Nuclei Pure Prep Nuclei Isolation Kit (Sigma Aldrich) following manufacturer protocol as previously described (13). Briefly, iPSN lysates were prepared by rinsing iPSNs with 1×PBS, adding mL supplied lysis buffer supplemented with DTT and Triton X-100 directly to each well, and harvesting iPSNs with a cell scraper. […] All lysates were transferred to a 50 mL conical tube and vortexed. Sucrose gradients were assembled following manufacturer protocol. A 1.85 M sucrose gradient was used to enrich for neuronal nuclei. Samples were centrifuged at 15,600 rpm and 4° C. using a Swi32T swinging bucket rotor and Beckman ultracentrifuge (Beckman Coulter) for 45 minutes. The supernatant was discarded, and the remaining nuclei pellet was resuspended in 1 mL of supplied nuclei storage buffer to wash the nuclei of any remaining sucrose. Resuspended nuclei were centrifuged at 2500 rpm and 4° C. for 5 minutes. The supernatant was once again discarded, and the resulting nuclei pellet was vortexed in 1 mL of supplied nuclei storage buffer to resuspend for downstream imaging analysis. […] Nuclei staining and super resolution imaging was performed as previously described (6). Following nuclei isolation, 10-50 μL of final nuclei/storage buffer suspension was centrifuged onto collagen coated (1 mg/mL; Advanced Biomatrix) slides with a CytoSpin 4 centrifuge (Thermo Fisher Scientific). Nuclei were immediately fixed with 4% PFA for 5 minutes, washed with 1×PBS 3×10 minutes and permeabilized with 1×PBST containing 0.1% Triton X-100 for 15 minutes. Nuclei were then blocked with 10% normal goat serum diluted in 1×PBS for 1 hour at room temperature and incubated in primary antibody diluted in block (10% normal goat serum in 1×PBS) overnight at 4° C. […] After 16-18 hours, nuclei were washed with 1×PBS 3×10 minutes, incubated in secondary antibody diluted in block (10% normal goat serum in 1×PBS) for 1 hour at room temperature (See Table B for antibody information). Nuclei were washed with 1×PBS 3×10 minutes and cover slipped using Prolong Gold Antifade Reagent (Invitrogen) and 18 mm×18 mm 1.5 high tolerance coverslips (MatTek). NeuN or GFP positive nuclei (see Description of the Figures) were identified via microscope eye pieces. A single z section ˜110 nm thick was acquired by widefield imaging to confirm NeuN or GFP positivity. The immunostained Nup or ESCRT-III protein was subsequently imaged by super resolution structured illumination microscopy (SIM) using a Zeiss ELYRA 51. For each image, 5 grid rotations and optimal z sectioning parameters were employed. Following image acquisition, SIM images were reconstructed using default SIM processing parameters with Zeiss Zen Black 2.3 SP1 software. Automated nucleoporin spot and volume analysis was conducted as previously described (6, 26) using Imaris version 9.2.0 (Bitplane) and the 3D suite plugin in FIJI version 1.52p. Nucleoporin spots were counted using automated spot detection. […] The total number of nucleoporin spots was determined using a 3D-rendering of segmented SIM images comprising the entire depth of each nucleus."}, "XPO1 [3]": {"biological_target": "T1, XPO1", "assay": "Nuclear/cytoplasmic fractionation and western blot of iPSNs following Leptomycin B treatment", "type": "cell-based", "settings": "iPSNs (FIGS. 12A-12C)", "method": "Leptomycin B and ASO Treatment of iPSC Derived Neurons Leptomycin B: On day 18 of differentiation, 10 nM Leptomycin B (LMB, Cayman Chemicals) was added to the culture media and iPSNs were returned to the incubator for ˜18 hours before downstream analyses were conducted. Ethanol was used as vehicle control. iPSNs were rinsed in 1×PBS and nuclear/cytoplasmic fractionation was performed with the NE-PER Nuclear and Cytoplasmic Extraction Kit (Thermo Fisher Scientific) according to manufacturer protocol. Following the addition of C2 buffer, 25 μL of sample was added to 25 μL 2× Laemmli buffer (BioRad) and set aside as protein input. An additional 25 μL was set aside on ice as RNA input. From each nuclear and cytoplasmic fraction obtained, 25 μL sample was added to 25 μL 2× Laemmli buffer for protein analysis. An additional 25 μL was added to 500 μL RLT buffer (QIAGEN) for RNA analysis. The remainder of each fraction was stored at −80° C. At the completion of the fractionation, 500 μL RLT buffer was added to the RNA input sample. RNA isolation, cDNA synthesis, and qRT-PCR were performed as described below. Western blot analysis was conducted as described below. Equal volume of each sample (10 μL) was loaded in acrylamide gels. […] The supernatant was transferred to a new Eppendorf tube and protein concentrations were determined using the BCA protein estimation assay kit (Thermo Fisher Scientific). […]"}, "XPO1 [4]": {"biological_target": "T1, XPO1", "assay": "Nuclear/cytoplasmic fractionation and qRT-PCR of C9orf72 iPSNs following Leptomycin B treatment", "type": "cell-based", "method": "Ethanol was used as vehicle control. iPSNs were rinsed in 1×PBS and nuclear/cytoplasmic fractionation was performed with the NE-PER Nuclear and Cytoplasmic Extraction Kit (Thermo Fisher Scientific) according to manufacturer protocol. Following the addition of C2 buffer, 25 μL of sample was added to 25 μL 2× Laemmli buffer (BioRad) and set aside as protein input. An additional 25 μL was set aside on ice as RNA input. From each nuclear and cytoplasmic fraction obtained, 25 μL sample was added to 25 μL 2× Laemmli buffer for protein analysis. An additional 25 μL was added to 500 μL RLT buffer (QIAGEN) for RNA analysis. The remainder of each fraction was stored at −80° C. At the completion of the fractionation, 500 μL RLT buffer was added to the RNA input sample. RNA isolation, cDNA synthesis, and qRT-PCR were performed as described below. […] RNA from immunoprecipitated complexes or nuclear and cytoplasmic cellular fractions was isolated with a RNeasy kit (QIAGEN) according to manufacturer protocol. RNA concentrations were determined with a NanoDrop 1000 spectrophotometer (Thermo Fisher Scientific). […]"}, "XPO1 [5]": {"biological_target": "T1, XPO1", "settings": "non-neuronal cell lines (ref 24); cited from earlier work"}, "[6]": {"settings": "C9orf72 and sALS iPSNs, day 40, compared to scrambled control ASO"}, "[7]": {"settings": "C9orf72 iPSNs, compared to scrambled control ASO"}}, "note": "Like-named read-outs stand apart in the source and are kept apart here."}
{"compound": "TGTTACCCTCAGATACCGCC (listed as DNA, chemistry not given here) [CHMP7 ASO 2, CHMP7 targeting ASO provided by Ionis Pharmaceuticals; targets human CHMP7 pre-mRNA, RNase H based degradation]", "values": [{"measurement": "Nup50 expression in iPSN nuclei and NPCs", "setting": "[1]; [6]", "result": "significantly restored"}, {"measurement": "Nup133 expression in iPSN nuclei and NPCs", "setting": "[1]; [6]", "result": "significantly restored"}, {"measurement": "POM121 expression in iPSN nuclei and NPCs", "setting": "[1]; [6]", "result": "significantly restored"}, {"measurement": "Nup50 expression in iPSN nuclei and NPCs", "setting": "[1]; [7]", "result": "significantly restored"}, {"measurement": "Nup133 expression in iPSN nuclei and NPCs", "setting": "[1]; [7]", "result": "significantly restored"}, {"measurement": "POM121 expression in iPSN nuclei and NPCs", "setting": "[1]; [7]", "result": "significantly restored"}, {"measurement": "sensitivity to glutamate induced excitotoxicity as measured by propidium iodide (PI) incorporation", "setting": "iPSNs; C9orf72 and sALS iPSNs, two week treatment (FIG. 20I)", "result": "significantly decreased"}, {"measurement": "sensitivity to glutamate induced excitotoxicity as measured by propidium iodide (PI) incorporation", "setting": "iPSNs; C9orf72 iPSNs, 2-week exposure to 5 μM ASO, 10 μM glutamate 4 hours (FIG. 4H)", "result": "mitigates"}, {"measurement": "full length stathmin-2 mRNA levels", "setting": "stathmin-2 mRNA", "result": "restored to levels observed in control iPSNs"}, {"measurement": "truncated stathmin-2 mRNA levels", "setting": "stathmin-2 mRNA", "result": "restored to levels observed in control iPSNs"}, {"measurement": "nuclear TDP-43 localization", "setting": "TDP-43", "result": "restored"}]}
{"compound": "CCC(=C/[C@H](C)C/C=C/C(C)=C/[C@@H](C)C(=O)[C@@H](C)[C@H](O)[C@@H](C)C/C(C)=C/C(=O)O)/C=C/[C@@H]1OC(=O)C=C[C@@H]1C", "note": "[LMB, Leptomycin B]", "values": [{"measurement": "CHMP7 in the nucleus", "setting": "XPO1 [2]", "result": "significant increase"}, {"measurement": "Nup50 immunoreactivity in nuclei", "setting": "XPO1 [2]", "result": "reduction"}, {"measurement": "Nup133 immunoreactivity in nuclei", "setting": "XPO1 [2]", "result": "reduction"}, {"measurement": "POM121 immunoreactivity in nuclei", "setting": "XPO1 [2]", "result": "reduction"}, {"measurement": "VPS4 immunoreactivity in nuclei", "setting": "XPO1 [2]", "result": "increase"}, {"measurement": "nuclear levels of DDX3X", "setting": "XPO1 [3]", "result": "increases"}, {"measurement": "nuclear levels of RanBP1", "setting": "XPO1 [3]", "result": "increases"}, {"measurement": "presence of G4C2 repeat RNA in the nuclear fraction", "setting": "XPO1 [4]; C9orf72 iPSNs (FIG. 12D)", "result": "strongly increases"}, {"measurement": "presence of G2C4 repeat RNA in the nuclear fraction", "setting": "XPO1 [4]; C9orf72 iPSNs (FIG. 12E)", "result": "strongly increases"}, {"measurement": "nuclear levels of DDX3X", "setting": "XPO1 [5]", "result": "increases"}, {"measurement": "nuclear levels of RanBP1", "setting": "XPO1 [5]", "result": "increases"}]}
